US12435316B2, “Three dimensional human brain tumor models” (priority 2018, dated 2025)

Tested on: 3D patient-derived meningioma models (pediatric patient's meningioma tissue)
Assay: Drug treatment of 3D patient-derived meningioma models, live cell staining (calcein AM) and confocal imaging
Format: cell-based, human
Conditions: one month-old 3D pediatric meningioma models; drug 0.05 to 0.8 mM for 48 hours; calcein AM live stain; compared to etoposide, carmustine, irinotecan hydrochloride, temozolomide
Experimental: FIGS. 7A-7B show drug treatment of 3D patient-derived meningioma models. A pediatric patient's meningioma tissue was used to generate replicates of 3D tumor models. One month-old models were treated with chemotherapeutic drugs, etoposide (VP16), carmustine (BCNU), lomustine (CCNU), irinotecan hydrochloride (CPT11) and temozolomide (TMZ) of 0.05 to 0.8 mM for 48 hours. The models were stained with calcein AM (2 uM) for live cells and confocal imaged ([…] section, 35 sections). (FIG. 7A) Maximum projection of 3D image stacks of drug-treated models. Number indicates drug concentration in mM. Ctrl, control. Scale bar, […]. (FIG. 7B) Quantification of live cell counts in relation to drug doses.
FIGS. 7A-7B show an example of drug study using patient-derived tumor models. This example used a pediatric meningioma model to test commonly used chemotherapeutic drugs (etoposide, carmustine, lomustine, irinotecan hydrochloride and temozolomide). […] Additional studies will compare the in vitro findings with the patient's clinical responses to further determine the most optimal drug regimen.
Live/Dead Assay was used to image live cells in cultures, according to the manufacturer's protocol (ThermoFisher Scientific). […] The stained cultures were imaged with a fluorescence microscope at Ex/Em of 494/517 nm and 528/617 nm for Live and Dead stains, respectively. […]

## O=NN(CCCl)C(=O)NC1CCCCC1 [lomustine]
  tumor cell-killing effects (live cell counts in relation to drug doses): strongest tumor cell-killing effects
